Test results published in publication PMC12311865, “In Vitro Evaluation of the Potential Interactions of Zearalenone-14-sulfate and Zearalenone-14-glucuronide with Human Cytochrome P450 Enzymes, Organic Anion Transporting Polypeptides, and ATP-Binding Cassette Multidrug Transporters” (ACS Omega, 2025).

Tests used:
OATP1B3 = target: T1, OATP1B3 (Homo sapiens, UniProt Q9NPD5); parameters: method as in earlier report; details: same experimental model; ref earlier report; cited from earlier work
T1 construct: expressed in transfected cells; host or cells: A431
T1 sequence (Q9NPD5 1-702): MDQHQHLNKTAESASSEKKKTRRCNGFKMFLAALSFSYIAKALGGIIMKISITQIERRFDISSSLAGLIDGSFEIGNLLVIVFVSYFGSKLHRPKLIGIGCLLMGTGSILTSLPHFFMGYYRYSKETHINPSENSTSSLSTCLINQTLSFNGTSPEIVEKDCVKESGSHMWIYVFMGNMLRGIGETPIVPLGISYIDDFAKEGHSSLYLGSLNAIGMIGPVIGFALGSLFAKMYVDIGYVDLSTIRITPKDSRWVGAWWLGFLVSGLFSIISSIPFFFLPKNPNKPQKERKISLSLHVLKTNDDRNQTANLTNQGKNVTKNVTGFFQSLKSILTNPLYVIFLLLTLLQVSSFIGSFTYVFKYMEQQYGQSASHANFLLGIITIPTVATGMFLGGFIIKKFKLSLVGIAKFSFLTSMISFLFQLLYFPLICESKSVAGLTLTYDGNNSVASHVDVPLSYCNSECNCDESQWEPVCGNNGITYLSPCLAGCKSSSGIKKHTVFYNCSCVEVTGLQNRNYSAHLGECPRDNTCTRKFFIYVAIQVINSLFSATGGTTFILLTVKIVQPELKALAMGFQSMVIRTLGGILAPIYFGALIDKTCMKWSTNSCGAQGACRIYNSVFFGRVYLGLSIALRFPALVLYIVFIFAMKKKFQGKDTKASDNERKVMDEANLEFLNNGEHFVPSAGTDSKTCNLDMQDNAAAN

OATP1B1 = target: T2, OATP1B1 (Homo sapiens, UniProt Q9Y6L6); parameters: method as in earlier report; details: same experimental model; ref earlier report; cited from earlier work
T2 construct: expressed in transfected cells; host or cells: A431
T2 sequence (Q9Y6L6 1-691): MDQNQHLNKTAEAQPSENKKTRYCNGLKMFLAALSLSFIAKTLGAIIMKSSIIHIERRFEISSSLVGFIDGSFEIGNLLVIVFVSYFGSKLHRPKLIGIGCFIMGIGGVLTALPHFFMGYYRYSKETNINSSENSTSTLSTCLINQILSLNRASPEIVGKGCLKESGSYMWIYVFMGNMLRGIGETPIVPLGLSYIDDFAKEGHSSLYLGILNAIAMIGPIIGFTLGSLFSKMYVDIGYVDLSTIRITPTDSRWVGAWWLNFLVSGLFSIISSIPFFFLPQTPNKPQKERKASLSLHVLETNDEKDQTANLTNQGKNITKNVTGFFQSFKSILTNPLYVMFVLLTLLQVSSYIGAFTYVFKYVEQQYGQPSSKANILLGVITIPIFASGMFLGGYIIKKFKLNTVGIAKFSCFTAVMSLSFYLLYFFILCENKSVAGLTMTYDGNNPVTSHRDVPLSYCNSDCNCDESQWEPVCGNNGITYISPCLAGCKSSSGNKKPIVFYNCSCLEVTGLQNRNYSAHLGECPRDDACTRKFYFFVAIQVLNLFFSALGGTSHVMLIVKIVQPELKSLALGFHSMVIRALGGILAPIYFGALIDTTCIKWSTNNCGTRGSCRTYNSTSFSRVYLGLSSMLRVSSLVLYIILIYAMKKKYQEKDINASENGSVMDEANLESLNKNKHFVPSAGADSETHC

MDR1 = target: T3, MDR1 (Homo sapiens, UniProt P08183); assay: MDR1-mediated NMQ vesicular transport (Sf9 membrane vesicles); format: biochemical; details: 0–50 μM; NMQ 5 μM
T3 construct: made in house; host or cells: Sf9 insect cells (baculovirus)
T3 sequence (P08183 whole entry): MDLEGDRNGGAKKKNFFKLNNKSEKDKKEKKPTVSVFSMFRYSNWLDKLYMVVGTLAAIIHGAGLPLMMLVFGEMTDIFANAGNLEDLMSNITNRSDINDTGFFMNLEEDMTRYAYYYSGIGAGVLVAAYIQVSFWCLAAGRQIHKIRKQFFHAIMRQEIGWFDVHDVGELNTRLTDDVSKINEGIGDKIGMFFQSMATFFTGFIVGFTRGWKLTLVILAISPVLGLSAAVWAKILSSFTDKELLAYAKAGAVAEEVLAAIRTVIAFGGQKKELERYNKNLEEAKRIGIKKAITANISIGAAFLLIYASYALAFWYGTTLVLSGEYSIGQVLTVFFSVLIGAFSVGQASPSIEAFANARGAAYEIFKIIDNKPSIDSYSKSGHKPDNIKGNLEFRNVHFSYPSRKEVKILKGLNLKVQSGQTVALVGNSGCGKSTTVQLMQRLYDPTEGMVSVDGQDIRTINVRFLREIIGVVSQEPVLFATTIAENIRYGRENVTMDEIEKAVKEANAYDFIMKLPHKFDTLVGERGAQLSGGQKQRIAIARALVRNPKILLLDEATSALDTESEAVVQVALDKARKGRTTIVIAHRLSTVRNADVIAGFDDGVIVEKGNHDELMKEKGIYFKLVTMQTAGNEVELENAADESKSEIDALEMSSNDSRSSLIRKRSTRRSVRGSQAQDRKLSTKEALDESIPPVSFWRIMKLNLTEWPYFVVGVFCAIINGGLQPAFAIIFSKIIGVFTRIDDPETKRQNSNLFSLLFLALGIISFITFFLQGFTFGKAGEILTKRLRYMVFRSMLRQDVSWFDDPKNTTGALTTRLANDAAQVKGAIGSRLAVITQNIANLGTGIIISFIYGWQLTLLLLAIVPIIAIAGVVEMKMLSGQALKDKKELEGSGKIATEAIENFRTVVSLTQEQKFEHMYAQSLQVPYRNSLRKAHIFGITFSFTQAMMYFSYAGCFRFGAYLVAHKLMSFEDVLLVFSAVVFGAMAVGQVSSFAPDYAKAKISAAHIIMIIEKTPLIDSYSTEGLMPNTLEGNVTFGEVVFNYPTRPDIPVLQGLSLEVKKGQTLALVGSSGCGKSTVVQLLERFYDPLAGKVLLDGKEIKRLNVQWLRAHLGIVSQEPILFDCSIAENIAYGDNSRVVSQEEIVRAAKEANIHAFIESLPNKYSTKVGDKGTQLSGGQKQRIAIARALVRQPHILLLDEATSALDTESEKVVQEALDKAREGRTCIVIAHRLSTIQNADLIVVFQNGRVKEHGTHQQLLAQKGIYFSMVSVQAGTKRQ
Description: Experiments were performed in insect membrane vesicles, as described previously. Briefly, human MDR1, BCRP, and MRP2 were expressed in Sf9 insect cells by baculoviruses. On the third day of infection, cells were collected and membrane vesicles were obtained by mechanical disruption and differential centrifugation. To get full activity for BCRP, the cholesterol levels of the vesicles were adjusted to the level of mammalian membranes. Vesicles were stored at −80 °C, and the total protein content of the preparations was measured by the Lowry method (used as a reference for the quantity). […] A 100 μL volume of fluorescence stabilizer was added to the samples (DMSO for LY, 0.1 M H2SO4 for NMQ, and 0.1 M NaOH for CDCF). Fluorescence of samples was measured by plate readers (Victor X3 and Enspire PerkinElmer; Waltham, MA) at appropriate wavelengths (filters in the Victor X3 reader were 405/535 nm for LY and 492/635 nm for CDCF; while in the Enspire reader, NMQ was measured at 360/430 nm excitation/emission wavelengths). ABC-related transport was calculated by subtracting passive uptake measured without Mg-ATP from values measured in the presence of Mg-ATP.

CYP1A2 = target: T4, CYP1A2 (Homo sapiens, UniProt P05177); parameters: purchased Abcam ab211075; method as in our previous study; details: ref our previous study; cited from earlier work
T4 sequence (P05177 1-516): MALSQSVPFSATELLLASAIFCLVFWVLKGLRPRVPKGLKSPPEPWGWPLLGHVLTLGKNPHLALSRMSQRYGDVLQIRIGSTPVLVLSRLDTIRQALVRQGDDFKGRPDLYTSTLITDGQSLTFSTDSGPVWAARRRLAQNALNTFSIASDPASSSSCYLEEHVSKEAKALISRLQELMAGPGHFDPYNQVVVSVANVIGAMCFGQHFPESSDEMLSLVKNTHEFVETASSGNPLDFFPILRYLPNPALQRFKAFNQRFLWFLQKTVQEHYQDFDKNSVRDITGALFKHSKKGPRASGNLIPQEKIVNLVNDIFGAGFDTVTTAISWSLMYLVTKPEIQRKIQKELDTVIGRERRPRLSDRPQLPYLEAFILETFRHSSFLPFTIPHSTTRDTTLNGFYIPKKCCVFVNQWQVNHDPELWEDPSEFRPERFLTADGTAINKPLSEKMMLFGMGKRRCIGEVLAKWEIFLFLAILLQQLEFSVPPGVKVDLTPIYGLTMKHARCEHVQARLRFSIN

CYP2C9 = target: T5, CYP2C9 (Homo sapiens, UniProt P11712); parameters: method as in our previous study; details: ref our previous study; cited from earlier work
T5 construct: purchased Merck
T5 sequence (P11712 whole entry): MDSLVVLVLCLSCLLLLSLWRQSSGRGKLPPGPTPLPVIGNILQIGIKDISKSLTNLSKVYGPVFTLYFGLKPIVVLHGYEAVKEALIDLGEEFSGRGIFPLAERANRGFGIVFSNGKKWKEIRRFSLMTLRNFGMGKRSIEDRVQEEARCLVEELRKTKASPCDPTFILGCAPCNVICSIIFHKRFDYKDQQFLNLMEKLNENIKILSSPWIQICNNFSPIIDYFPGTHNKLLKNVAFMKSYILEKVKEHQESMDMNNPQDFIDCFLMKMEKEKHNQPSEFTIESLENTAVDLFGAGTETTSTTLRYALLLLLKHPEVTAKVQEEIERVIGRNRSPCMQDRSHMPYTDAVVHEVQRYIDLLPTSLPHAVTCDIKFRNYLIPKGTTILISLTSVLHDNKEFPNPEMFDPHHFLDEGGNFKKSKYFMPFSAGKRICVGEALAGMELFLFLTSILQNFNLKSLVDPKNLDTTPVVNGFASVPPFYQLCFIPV

Question: Which IC50 (OATP1B3) does the source give for `C[C@H]1CCCC(=O)CCC/C=C/c2cc(O)cc(O)c2C(=O)O1` [ZEN, Zearalenone] here?
Answer: 8.1 µM

Question: What about the IC50 (OATP1B1) of the same compound?
Answer: > 10 µM

Question: And the “effect on MDR1-driven NMQ transport” value (MDR1)?
Answer: inhibition only at 50 μM concentration

Question: What about the IC50 (CYP1A2) of the same compound?
Answer: 7.8 µM

Question: And the IC50 (CYP2C9)?
Answer: 9.8 µM
